Test results taken from patent US5166162A, “Pyridylsulfonylurea and pyridylsulfonylthiourea compounds” (Adir et Compagnie, priority 1990, dated 1992).

Legend:
[1] = Determination of partition coefficients between n-octanol and water; format: physicochemical; conditions: pH=7.4, logarithm to base 10
Protocol: The coefficients of partition between n-octanol and water were determined at pH=7.4 by conventional techniques and are expressed as logarithms to base 10 (Log P).

[2] = Determination of pKa (proton acidity constant of SO2-NH-CO-); format: physicochemical
Source text: The pKa values represent the proton acidity constants of SO2 --NH--CO--.

[3] = biological target: T1, Na^+ /K^+ /2Cl^- cotransport (Oryctolagus cuniculus, UniProt P55015); assay: Inhibition of Na+/K+/2Cl- cotransport, luminal membrane of the ascending branch of the loop of Henle in the nephron of perfused rabbits; conditions: in vivo
T1 construct: luminal membrane of the ascending branch of the loop of Henle in the nephron of perfused rabbits; from tissue; host or cells: rabbit nephron, ascending branch of the loop of Henle
T1 sequence (P55015 1-1099): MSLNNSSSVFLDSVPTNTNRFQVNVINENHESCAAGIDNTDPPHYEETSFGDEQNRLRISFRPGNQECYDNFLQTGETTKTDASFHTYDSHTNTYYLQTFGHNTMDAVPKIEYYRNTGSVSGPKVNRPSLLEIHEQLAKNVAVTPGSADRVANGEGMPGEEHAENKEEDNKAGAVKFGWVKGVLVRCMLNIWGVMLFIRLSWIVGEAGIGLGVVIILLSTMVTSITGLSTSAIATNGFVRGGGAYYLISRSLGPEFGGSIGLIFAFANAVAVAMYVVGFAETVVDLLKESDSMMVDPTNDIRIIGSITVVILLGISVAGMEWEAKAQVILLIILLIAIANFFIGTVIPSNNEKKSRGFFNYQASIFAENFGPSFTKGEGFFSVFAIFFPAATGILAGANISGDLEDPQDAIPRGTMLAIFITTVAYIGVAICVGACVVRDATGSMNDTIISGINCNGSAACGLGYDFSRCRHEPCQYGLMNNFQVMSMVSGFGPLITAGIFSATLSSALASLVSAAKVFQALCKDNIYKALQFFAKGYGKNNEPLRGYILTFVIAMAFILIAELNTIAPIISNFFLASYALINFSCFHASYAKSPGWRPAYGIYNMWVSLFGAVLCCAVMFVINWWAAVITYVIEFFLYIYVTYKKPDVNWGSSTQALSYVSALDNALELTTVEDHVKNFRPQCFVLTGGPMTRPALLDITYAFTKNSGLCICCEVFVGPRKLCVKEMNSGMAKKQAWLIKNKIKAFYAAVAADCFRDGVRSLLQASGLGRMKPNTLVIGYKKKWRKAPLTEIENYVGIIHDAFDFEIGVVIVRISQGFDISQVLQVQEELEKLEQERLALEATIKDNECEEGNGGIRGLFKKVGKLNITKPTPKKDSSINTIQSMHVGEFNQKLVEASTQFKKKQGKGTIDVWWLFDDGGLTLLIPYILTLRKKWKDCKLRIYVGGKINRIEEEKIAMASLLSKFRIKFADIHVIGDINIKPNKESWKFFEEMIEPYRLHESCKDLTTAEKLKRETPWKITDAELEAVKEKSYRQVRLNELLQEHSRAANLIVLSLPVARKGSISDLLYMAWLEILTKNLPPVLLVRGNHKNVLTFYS
Source text: (§1) The 50% inhibitory concentration for Na^+ /K^+ /2Cl^- cotransport in vivo is decreased, in the case of the compound of Example 3, by about 60% relative to Torasemide (luminal membrane of the ascending branch of the loop of Henle in the nephron of perfused rabbits (Arzneim. Forsch. (1988) 38 (1a), 151-152)), and by 85% relative to Torasemide in the case of the compound of Example 10 (erythrocyte membrane in normotensive rats).

[4] = system: Cl^- passage in the kidneys; assay: Inhibition of Cl- passage in the kidneys in vivo
Source text: The 50% inhibitory concentration for Cl^- passage in the kidneys in vivo is decreased, in the case of the compound of Example 8 by about 50% relative to Torasemide and in the case of the compound of Example 18 by 75%.

[5] = biological target: T2, Na^+ /K^+ /2Cl^- cotransport (Rattus norvegicus, UniProt E9PTX9); assay: Inhibition of Na+/K+/2Cl- cotransport, erythrocyte membrane in normotensive rats; format: in vivo
T2 construct: erythrocyte membrane in normotensive rats; from tissue; host or cells: rat erythrocytes
T2 sequence (E9PTX9 1-1203): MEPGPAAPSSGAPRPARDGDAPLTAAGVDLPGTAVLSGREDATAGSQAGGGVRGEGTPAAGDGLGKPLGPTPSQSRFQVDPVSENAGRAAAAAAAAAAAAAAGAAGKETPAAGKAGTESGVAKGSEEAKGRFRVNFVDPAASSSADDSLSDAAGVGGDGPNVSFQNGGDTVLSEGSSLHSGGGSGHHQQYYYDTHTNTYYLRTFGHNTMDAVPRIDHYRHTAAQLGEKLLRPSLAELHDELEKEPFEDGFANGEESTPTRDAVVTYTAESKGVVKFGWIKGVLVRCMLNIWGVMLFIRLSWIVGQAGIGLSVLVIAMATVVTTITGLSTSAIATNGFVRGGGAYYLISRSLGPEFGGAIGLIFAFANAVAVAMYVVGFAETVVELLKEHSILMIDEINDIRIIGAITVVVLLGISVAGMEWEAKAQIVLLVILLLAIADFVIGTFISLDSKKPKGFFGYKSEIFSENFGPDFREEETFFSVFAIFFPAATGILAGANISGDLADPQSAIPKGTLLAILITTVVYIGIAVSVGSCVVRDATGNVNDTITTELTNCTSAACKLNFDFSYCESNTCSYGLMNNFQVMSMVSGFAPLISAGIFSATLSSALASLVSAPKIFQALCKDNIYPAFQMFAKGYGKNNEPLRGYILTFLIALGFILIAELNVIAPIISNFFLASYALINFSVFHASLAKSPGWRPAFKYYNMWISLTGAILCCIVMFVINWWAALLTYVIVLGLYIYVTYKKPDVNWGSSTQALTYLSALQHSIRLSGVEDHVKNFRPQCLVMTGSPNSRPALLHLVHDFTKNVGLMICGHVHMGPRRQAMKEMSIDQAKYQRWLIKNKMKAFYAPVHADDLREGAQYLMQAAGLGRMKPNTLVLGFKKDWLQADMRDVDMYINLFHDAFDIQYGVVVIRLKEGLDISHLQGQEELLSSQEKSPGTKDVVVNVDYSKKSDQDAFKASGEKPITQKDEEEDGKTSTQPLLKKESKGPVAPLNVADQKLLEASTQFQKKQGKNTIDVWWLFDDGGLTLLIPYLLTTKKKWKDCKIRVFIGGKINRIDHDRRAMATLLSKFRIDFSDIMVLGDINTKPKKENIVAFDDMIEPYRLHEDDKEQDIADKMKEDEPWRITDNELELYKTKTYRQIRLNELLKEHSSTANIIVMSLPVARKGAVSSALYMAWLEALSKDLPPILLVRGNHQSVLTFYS
Source text: as §1
This decrease of the 50% inhibitory concentration of the Torasemide for Na^+ /K^+ /[…] co-transport (erythrocyte membrane in normotensive rats) reachs even 90% in the case of the compound of Example 18.

## O=C(NC1CCCCC1)NS(=O)(=O)c1cnccc1NC1CCCCC1 [Example 1, N-((4(-cyclohexylamino)pyrid-3-yl)sulfonyl)-N'-cyclohexylurea]
[1]
  logD: 1.33
[2]
  pKa: 9.02

## O=C(NC1CCCCC1)NS(=O)(=O)c1cnccc1NC1CCCCCC1 [Example 2, N-((4-(cycloheptylamino)pyrid-3-yl)sulfonyl)-N'-cyclohexylurea]
[1]
  logD: 1.67
[2]
  pKa: 9.39

## O=C(NC1CCCCCCC1)NS(=O)(=O)c1cnccc1NC1CCCCCCC1 [Example 3, N-((4-(cyclooctylamino)pyrid-3-yl)sulfonyl-N'-cyclooctylurea nitrate]
[1]
  logD: 2.7
[2]
  pKa: 7.74
[3]
  decrease of the 50% inhibitory concentration for Na+/K+/2Cl- cotransport relative to Torasemide: about 60%

## O=C(NC1CCCCCCC1)NS(=O)(=O)c1cnccc1NC1CCCCC1 [Example 7, N-((4-(cyclohexylamino)pyrid-3-yl)sulfonyl)-N'-cyclooctylurea]
[1]
  logD: 2.07
[2]
  pKa: 9.13

## O=C(NC1CCCCCC1)NS(=O)(=O)c1cnccc1NC1CCCCCCC1 [Example 8, N-((4-(cyclooctylamino)pyrid-3-yl)sulfonyl)-N'-cycloheptylurea]
[1]
  logD: 2.45
[2]
  pKa: 9.15
[4]
  decrease of the 50% inhibitory concentration for Cl- passage in the kidneys relative to Torasemide: about 50%

## O=C(NC1CCCCC1)NS(=O)(=O)c1cnccc1NC1CCCCCCC1 [Example 10, N-((4-(cyclooctylamino)pyrid-3-yl)sulfonyl)-N'-cyclohexylurea]
[1]
  logD: 2.06
[2]
  pKa: 8.95
[5]
  decrease of the 50% inhibitory concentration for Na+/K+/2Cl- cotransport relative to Torasemide: 85%

## O=C(NC1CCCCCC1)NS(=O)(=O)c1cnccc1NC1CCCCCC1 [Example 18, N-((4-(cycloheptylamino)pyrid-3-yl)sulfonyl)-N'-cycloheptylurea]
[5]
  decrease of the 50% inhibitory concentration for Na+/K+/2Cl- cotransport relative to Torasemide: 90%
[4]
  decrease of the 50% inhibitory concentration for Cl- passage in the kidneys relative to Torasemide: 75%

## Cc1cccc(Nc2ccncc2S(=O)(=O)NC(=O)NC(C)C)c1 [Torasemide, reference compound]
[1]
  logD: 0.449
[2]
  pKa: 6.82
